Patent publication US4225595A, “Piperazine phosphates and phosphonate insecticides” (priority 1979, dated 1980)
Converted amounts (≈) assume the structure as drawn.

Experiments:
[1] = tested on: Green Peach Aphid [Myzus persicae (Sulzer)]; test: Green Peach Aphid (GPA) plant spray assay; format: in vivo; details: spray on infested radish plants, three days
Description: (§1) Screening was initiated at a maximal concentration level believed to be injurious to the insect population. The initial level should not be understood as representing a maximum at which a viable test for insecticidal activity can be conducted.
(§2) Nasturtium plants, Tropaeolum sp., approximately five centimeters (cm) high were transplanted into sandy loam soil in three-inch clay pots. Each pot was infested with 25-50 black bean aphids of mixed ages. Twenty-four hours later the pots were sprayed to the point of run-off with 50--50 acetone-water solutions of the test compounds.
(§3) Mortality rates were recorded after the infested plants had been held in the greenhouse for three days. Test concentrations ranged from 0.05% down to that at which 50% mortality occurs. Green Peach Aphid [Myzus persicae (Sulzer)], (GPA)
(§4) The insecticidal properties were tested in the same manner as for black beam aphids with the substitution of the nasturtiums by radish plants, Rhaphanus sativus. German Cockroach [Blatella germanica (Linne)], (GR)--Direct Spray
(§5) A less than 50% mortality rate at the initial concentration is indicated by a "greater than" sign (>). An approximately 50% mortality rate is indicated by the initial concentration rate. Other results are the dilutions at which an LD50 was achieved.

[2] = tested on: Southern House Mosquito Larvae (Culex pipiens quinquefasciatus); test: Southern House Mosquito larvae (M) assay, mortality 48 hours after treatment; format: in vivo; details: third-instar larvae in aqueous solution, initial 1 ppm, read-out: LD50 M
Procedure: as §1
Tobacco budworms were tested in the same manner as the cabbage looper. Romaine lettuce (Latuca sativa) leaves provided the substrate. Southern House Mosquito Larvae (Culex pipiens quinquefasciatus), (M)
Ten third-instar larvae were placed in a six ounce wax paper cup containing 100 ml of an aqueous solution of the test compounds at a concentration of 1 ppm. The treated larvae were stored at 70° F. (21.5° C.) and mortality was recorded 48 hours after treatment. Two-Spotted Mite [Tetranychus urticae (Koch)], (2SM)
as §5

[3] = tested on: Two-Spotted Mite [Tetranychus urticae (Koch)]; test: Two-Spotted Mite (2SM) plant dip assay, mortality seven days later; format: in vivo; details: for LD50 2SM Adults: adult mites; for LD50 2SM Eggs: eggs (nymphs hatching after treatment)
Description: (§6) Screening was initiated at a maximal concentration level believed to be injurious to the insect population. The initial level should not be understood as representing a maximum at which a viable test for insecticidal activity can be conducted. […]
Pinto bean plants (Phaseolus vulgaris) approximately 10 cm high were transplanted into sandy loam soil in three-inch clay pots. The plants were thoroughly infested with two-spotted mites of mixed ages and sexes. Twenty-four hours after infestation the plants were inverted and dipped for 2-3 seconds in 50--50 acetone-water solutions of the test compounds.
Mortality ratings for both adult mites and nymphs hatching after treatment were taken seven days later. Test concentrations ranged from 0.05% down to that at which 50% mortality occurs.
as §5

[4] = tested on: Cabbage Looper [Trichoplusia ni (Hubner)]; test: Cabbage Looper (CL) leaf dip assay; format: in vivo; details: squash cotyledons, initial 0.1%
Procedure: as §1
(§7) Test compounds were diluted in a 50--50 acetone-water solution. Approximately 1×1.5 inch sections of curly dock (Rumex crispus) leaves were immersed in the test solution for 2-3 seconds. After drying on a wire screen, the leaves were placed in petri dishes containing a moistened piece of filter paper. Each dish was infested with 5 secondinstar saltmarsh larvae.
(§8) Mortality of the larvae was recorded 48 hours later. A piece of synthetic media was added to the dishes containing surviving larvae. The larvae were then observed for 5 additional days for delayed effects of the test compounds. Test concentrations ranged from 0.05% down to that at which approximately 50% mortality occurs. Cabbage Looper [Trichoplusia ni (Hubner)], (CL)
The effectiveness of the compounds was tested in the same manner as for the saltmarsh caterpillar with two exceptions. Cotyledons of hyzini squash (Calabacita abobrinha, were substituted for curly dock leaves and the initial test concentration was 0.1%. Tobacco Budworm [Heliothis virescens (Fabricius)], (TBW)
as §5

[5] = tested on: Tobacco Budworm [Heliothis virescens (Fabricius)]; details: leaf dip, Romaine lettuce leaves
Procedure: Mortality of the larvae was recorded 48 hours later. A piece of synthetic media was added to the dishes containing surviving larvae. […] Test concentrations ranged from 0.05% down to that at which approximately 50% mortality occurs.

[6] = tested on: German Cockroach [Blatella germanica (Linne)]; test: German Cockroach (GR) direct spray, mortality 7 days later; format: in vivo; details: one-month-old nymphs, initial 0.1%
Procedure: as §1
(§9) Mobile insects, such as houseflies, German cockroaches, Lygus bugs, were contained for treatment in circular cardboard cages covered with cellophane on the bottom and tulle netting on the top.
as §4
(§10) Test compounds were diluted in a 50--50 acetonewater solution. Two cubic centimeters (cc) of the compound solutions were sprayed through a DeVilbiss type EGA hand spray gun into cages each containing 10 one-month-old German cockroach nymphs.
The percent mortality was recorded 7 days later. Test concentrations ranged from 0.1% down to that at which approximately 50% mortality occurs.
as §5

[7] = tested on: Black Bean Aphid [Aphis fabae (Scop.)]; test: Black Bean Aphid (BBA) plant spray assay, mortality after three days; format: in vivo; details: spray on infested nasturtium plants
Description: as §6, §2, §3, §5

[8] = tested on: Lygus Bug [Lygus hesperus (Knight)]; test: Lygus Bug (LB) direct spray assay, mortality 48 hours later; format: in vivo; details: adults, initial 0.05%
Procedure: as §1, §9, §10
Lygus Bug [Lygus hesperus (Knight)], (LB)--Direct Spray Assay
(§11) The species was treated in the same manner as the German cockroach. The cages contained one string beam pod and 10 adult Lygus bugs. The percent mortality was recorded 48 hours later. Test concentrations ranged from 0.05% down to that at which approximately 50% mortality occurs. Saltmarsh Caterpillar [Estigmene acrea (Drury)], (SMC)--Leaf Dip Assay
as §5

[9] = tested on: Housefly [Musca domestica (Linn.)]; details: topical, 48 h
Procedure: Housefly [Musca domestica (Linn.)], (HF)--Contact Residue Assay
Test compounds were diluted in acetone and aliquots were pipetted onto the bottom of 55×15 millimeter (mm) aluminum dishes. One ml of acetone containing 0.02% peanut oil was added to each dish to insure even spreading. After all solvents had evaporated the dishes were placed in cages each containing 25 one to two day old female houseflies. Each cage contained a sugar-water cotton plug for sustanence of the flies.
Mortality rates were recorded after 48 hours. Test levels ranged from 10 μ/25 .female. houseflies down to that at which approximately 50% mortality occurs.

[10] = tested on: Saltmarsh Caterpillar [Estigmene acrea (Drury)]; test: Saltmarsh Caterpillar (SMC) leaf dip assay; format: in vivo; details: curly dock leaves, second-instar larvae, 48 hours + 5 days
Procedure: as §1, §11, §7, §8, §5

Compound	LD50 GPA [1]	LC50 [2] [µg/mL]	LD50 2SM Adults [3]	LD50 2SM Eggs [3]	LD50 CL [4]	LD50 TBW [5]	LD50 GR [6]	LD50 BBA [7]	LD50 LB [8]	LD50 HF [9] [μg/25]	LD50 SMC [10]
CCOP(=S)(OCC)SCC(=O)N1CCN(C(=O)OC)CC1 [Compound 3, 1-N-methoxycarbo-4-N-O,O-diethylphosphorodithioylacetyl piperazine]	.01%	> 1	< .05%	< .05%	> .1%	> .1%	> .1%	.001%	> .05%	> 10	
CCOC(=O)N1CCN(C(=O)CSP(=S)(OC)OC)CC1 [Compound 10, 1-N-ethoxycarbo-4-N-O,O-dimethylphosphorodithioylacetyl piperazine]	.002%	1 (≈ 2.81 µM)	.002%	.005%	> .1%	> .05%	> .1%	.0002%	> .05%	> 10	
CCOC(=O)N1CCN(C(=O)CSP(=S)(OC)OC)C(C)C1 (centres unmarked) [Compound 11, 1-N-ethoxycarbo-4-N'-O,O-dimethylphosphorodithioylacetyl-3-methyl piperazine]	.03%	1 (≈ 2.7 µM)	< .05%	< .05%	> .1%	.1%	> .1%	.002%	> .05%	> 10	.05%
CCOC(=O)N1CCN(C(=O)CSP(=S)(OCC)OCC)CC1 [Compound 12, 1-N-ethoxycarbo-4-N-O,O-diethylphosphorodithioylacetyl piperazine]	.008%	> 1	.001%	.002%	> .1%	> .1%	> .1%	.001%	> .05%	> 10	> .05%
CCOC(=O)N1CCN(C(=O)CSP(=S)(OCC)OCC)C(C)C1 (centres unmarked) [Compound 13, 1-N-ethoxycarbo-4-N'-O,O-diethylphosphorodithioylacetyl-3-methyl piperazine]	.008%	> 1	.003%	.006%	> .1%	> .05%	> .1%	.003%	> .05%	> 10	> .05%
CCOC(=O)N1CCN(C(=O)CSP(=O)(OCC)OCC)C(C)C1 (centres unmarked) [Compound 14, 1-N-carboethoxy-4-N'-O,O-diethylphosphoromonothioylacetyl-3-methyl piperazine]	.005%	> 1	< .05%	< .05%	> .1%	> .1%	> .1%	.0005%	> .05%	> 10	
COP(=S)(OC)SCC(=O)N1CCN(C(=O)OC(C)C)CC1 [Compound 18, 1-N-ispropoxycarbo-4-N-O,O-dimethylphosphorodithioylacetyl piperazine]	.005%	1 (≈ 2.7 µM)	< .05%	< .05%	> .1%	> .1%	> .1%	.0005%	> .05%	> 10	> .05%
CCOP(=S)(OCC)SCC(=O)N1CCN(C(=O)OC(C)C)CC1 [Compound 19, 1-N-isopropoxycarbo-4-N-O,O-diethylphosphorodithioylacetyl piperazine]	.006%	> 1	< .05%	< .05%	> .1%	> .1%	> .1%	.0006%	> .05%	> 10	> .05%
CCOP(=O)(OCC)SCC(=O)N1CCN(C(=O)OC(C)C)CC1 [Compound 20, 1-N-isopropoxycarbo-4-N-O,O-diethylphosphoromonothioylacetyl piperazine]	.008%	> 1	< .05%	< .05%	> .1%	.1%	> .1%	.0005%	> .05%	> 10	> .05%
CCOP(=S)(OCC)SCC(=O)N1CCN(C(=O)Oc2ccccc2)CC1 [Compound 23, 1-N-phenyloxycarbo-4-N-O,O-diethylphosphorodithioylacetyl piperazine]	.008%	1 (≈ 2.31 µM)	< .05%	< .05%	.1%	> .1%	> .1%	.002%	> .05%	> 10	
CCOP(=S)(OCC)SCC(=O)N1CCN(C(=O)SC)CC1 [Compound 27, 1-N-methylthiocarbo-4-N-O,O-diethylphosphorodithioylacetyl piperazine]	.01%	> 1	< .05%	< .05%	> .1%	> .1%	> .1%	.001%	> .05%	> 10	
COP(=S)(OC)SCC(=O)N1CCN(C(=O)SC(C)(C)C)CC1C (centres unmarked) [Compound 32, 1-N-carbo-t-butylthio-4-N'-O,O-dimethylphosphorodithioylacetyl-3-methyl piperazine]		> 1	> .05%	> .05%		> .05%		> .05%		> 10	
CCOP(=S)(OCC)SCC(=O)N1CCN(C(=O)SC(C)(C)C)CC1C (centres unmarked) [Compound 33, 1-N-carbo-t-butylthio-4-N'-O,O-diethylphosphorodithioylacetyl-3-methyl piperazine]						> .05%		> .005%		> 10	
